Laboratory results: patent US9969758B2, “Antimicrobial compounds” (BIOMERIEUX, priority 2014, dated 2018)

Experiments:
Test in all cases: MIC by agar dilution
E. coli (53) = assay type: cell-based, Escherichia coli; conditions: E. coli (53)
Excerpt: (§1) Bacterial isolates. […] These included Citrobacter freundii (n=5), other species of Citrobacter (n=4), Enterobacter aerogenes (n=1), Enterobacter cloacae (n=27), Escherichia coli (n=53), Klebsiella oxytoca (n=5), Klebsiella pneumoniae (n=87), Kluyvera spp (n=1), Proteus mirabilis (n=8), Providencia rettgeri (n=2), Salmonella spp (n=3), and Serratia marcescens (n=1). Among these 197 isolates, there were 128 (65%) carbapenemase producers, including; 87 with NDM-1, 9 with IMP, 11 with KPC, 14 with OXA-48 and 7 with VIM. The majority of the carbapenemase producers jointly produced broad-spectrum β-lactamases (BSBL) or cephalosporinases (AmpC β-lactamases), but the latter are not documented for the sake of clarity.
(§2) Determining the minimum inhibitory concentrations (MIC). All the MICs were determined using an agar dilution method. This required use of a medium without a defined antagonist (peptone-free), prepared as described previously with the inclusion of 2% horse blood lysed with saponin, 25.0 μg/mL of NAD and 25.0 μg/mL of hemin [17]. The compounds tested were dissolved in sterile deionised water and incorporated into the agar medium in a concentration range of 0.0031 to 8.0 μg/mL (0.016 to 32 μg/mL for gram-positive bacteria). All the isolates were prepared at a density equivalent to 0.5 McFarland units in sterile deionised water using a densitometer (approximately 1.5×10^8 CFU/mL), and then diluted to 1 for 15. An aliquot of 1 μL of each diluted suspension was then placed onto plates with a multispot inoculator to give the final recommended inoculation of 10 000 CFU/spot. The MICs of fosfomycin were determined by the same method, except that the IsoSensitest medium (Oxoid, Basingstoke, United Kingdom) was used, plus 25.0 μg/mL of glucose-6-phosphate (Sigma, Poole, United Kingdom) and an extended range of fosfomycin concentrations. All the dishes (including the antimicrobial-free controls) were incubated for 22 hours at 37° C. All the tests were performed on at least two independent replicates in order to examine the reproducibility.

K. pneumoniae (87) = assay type: cell-based, Klebsiella pneumoniae; conditions: K. pneumoniae (87)
Excerpt: as §1, §2

E. cloacae (27) = assay type: cell-based, Enterobacter cloacae; conditions: E. cloacae (27)
Excerpt: as §1, §2

AmpC (22) = assay type: cell-based, Enterobacteriaceae; conditions: AmpC (22)
Excerpt: as §1, §2

All S. aureus (50) = assay type: cell-based, Staphylococcus aureus; conditions: All S. aureus (50)
Excerpt: (§3) A collection of 50 isolates of Staphylococci aureus included 36 strains of methicillin-resistant S. aureus (MRSA) frequently encountered in Europe, including strains isolated in Belgium, Finland, France, Germany and the United Kingdom. Another strain of MRSA, NCTC 11939, was included as a control, as well as a methicillin-sensitive control (NCTC 6571). Twelve other isolates of methicillin-sensitive Staphylococcus aureus (MSSA) recently collected from blood cultures were also included. Finally, 50 isolates of enterococci included two control strains (Enterococcus faecalis NCTC 755 and Enterococcus faecium NCTC 7171) and 48 isolates originating from clinical samples obtained from at least three different hospitals. The clinical isolates included E. faecalis (n=10), E. faecium (n=33), Enterococcus casseliflavus (n=3), Enterococcus gallinarum (n=2).
as §2

All Enterococci (50) = assay type: cell-based
Excerpt: as §3, §2

[1] = tested on: glycopeptide-resistant enterococci; assay type: cell-based; conditions: GRE (43)
Excerpt: as §3, §2

[2] = tested on: methicillin-resistant Staphylococcus aureus; assay type: cell-based; conditions: MRSA (37)
Excerpt: as §3, §2

[3] = tested on: methicillin-sensitive Staphylococcus aureus; assay type: cell-based; conditions: MSSA (13)
Excerpt: as §3, §2

E. faecalis (11) = assay type: cell-based, Enterococcus faecalis; conditions: E. faecalis (11)
Excerpt: as §3, §2

E. faecium (34) = assay type: cell-based, Enterococcus faecium
Excerpt: as §3, §2

Enterobacteriaceae (197) = assay type: cell-based; conditions: Enterobacteriaceae (197)
Excerpt: as §1, §2

[4] = tested on: Enterobacteriaceae with a broad-spectrum β-lactamase; assay type: cell-based; conditions: BSBL (47)
Excerpt: as §1, §2

[5] = tested on: carbapenemase-producing Enterobacteriaceae; assay type: cell-based; conditions: CPE (128)
Excerpt: as §1, §2

C[C@H](N)C(=O)N[C@@H](C)C(=O)N[C@@H](C)P(=O)(O)O [Di-alanyl fosfalin, L-alanyl-L-alanyl-L-1-aminoethylphosphonic acid]
8 µg/mL: MIC50 (All S. aureus (50)) | MIC50 [2] | MIC50 [3] | MIC50 (Enterobacteriaceae (197)) | MIC50 [4] | MIC50 [5]
>32 µg/mL: MIC90 [1]
≤0.016-4 ^ μg/mL: MIC Range (E. faecium (34); E. faecium (34))
2 µg/mL: MIC90 (E. coli (53)) | MIC90 (All Enterococci (50); All Enterococci (50)) | MIC90 (E. faecium (34); E. faecium (34))
>8 µg/mL: MIC50 (K. pneumoniae (87)) | MIC90 (K. pneumoniae (87)) | Modal MIC (most frequent MIC) (K. pneumoniae (87)) | MIC50 (E. cloacae (27)) | MIC90 (E. cloacae (27)) | MIC50 (AmpC (22)) | MIC90 (AmpC (22)) | Modal MIC (most frequent MIC) (AmpC (22)) | MIC90 (Enterobacteriaceae (197)) | Modal MIC (most frequent MIC) (Enterobacteriaceae (197)) | MIC90 [4] | Modal MIC (most frequent MIC) [4] | MIC90 [5] | Modal MIC (most frequent MIC) [5]
4 µg/mL: Modal MIC (most frequent MIC) (E. cloacae (27)) | Modal MIC (most frequent MIC) (All S. aureus (50)) | Modal MIC (most frequent MIC) [2] | concentration by which all isolates were inhibited (E. faecium (34); 34 E. faecium isolates (including 31 vancomycin-resistant))
16 µg/mL: MIC90 (All S. aureus (50)) | MIC90 [2] | MIC90 [3] | Modal MIC (most frequent MIC) [3]
0.063 µg/mL: MIC50 (E. faecalis (11))
256 times: MICs lower than those of alafosfalin, in certain cases (All Enterococci (50); enterococci)
0.5 µg/mL: MIC50 (E. coli (53)) | MIC50 (All Enterococci (50); All Enterococci (50)) | Modal MIC (most frequent MIC) (All Enterococci (50); All Enterococci (50)) | MIC50 [1] | Modal MIC (most frequent MIC) [1] | MIC90 (E. faecalis (11)) | MIC50 (E. faecium (34); E. faecium (34)) | Modal MIC (most frequent MIC) (E. faecium (34); E. faecium (34))
0.25 µg/mL: Modal MIC (most frequent MIC) (E. coli (53))
0.031 µg/mL: Modal MIC (most frequent MIC) (E. faecalis (11))
0.5 to 32 µg/mL: MIC Range (All S. aureus (50)) | MIC Range [2] | MIC Range [3]
~16 times: MICs lower than those of alafosfalin, on average (All Enterococci (50); enterococci)
